Results reported in ChEMBL document CHEMBL1201862, “PubChem BioAssay data set” (2004).
Activity calls are given as the source filed them.

How the values were obtained:
cells [1] = assay type: functional
[2] = target: Voltage-dependent T-type calcium channel subunit alpha-1H (Homo sapiens, UniProt O95180); assay type: functional;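 also: channel activity triggered by adding a high calcium stimulation buffer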
[3] = target: T1, Heat shock factor protein 1 (Mus musculus, UniProt P38532); test: decrease of HSF1-responsive luciferase luminescence – cell-based, NIH3T3, dose retest, confirmation (AID 2382); assay type: functional;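 also: NIH3T3 fibroblasts with HSF1-driven luciferase reporter stressed by proteasome inhibitor MG132; luminescence from HSF1-driven luciferase expression after 8 hours of MG132 stress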
T1 sequence (P38532 whole entry): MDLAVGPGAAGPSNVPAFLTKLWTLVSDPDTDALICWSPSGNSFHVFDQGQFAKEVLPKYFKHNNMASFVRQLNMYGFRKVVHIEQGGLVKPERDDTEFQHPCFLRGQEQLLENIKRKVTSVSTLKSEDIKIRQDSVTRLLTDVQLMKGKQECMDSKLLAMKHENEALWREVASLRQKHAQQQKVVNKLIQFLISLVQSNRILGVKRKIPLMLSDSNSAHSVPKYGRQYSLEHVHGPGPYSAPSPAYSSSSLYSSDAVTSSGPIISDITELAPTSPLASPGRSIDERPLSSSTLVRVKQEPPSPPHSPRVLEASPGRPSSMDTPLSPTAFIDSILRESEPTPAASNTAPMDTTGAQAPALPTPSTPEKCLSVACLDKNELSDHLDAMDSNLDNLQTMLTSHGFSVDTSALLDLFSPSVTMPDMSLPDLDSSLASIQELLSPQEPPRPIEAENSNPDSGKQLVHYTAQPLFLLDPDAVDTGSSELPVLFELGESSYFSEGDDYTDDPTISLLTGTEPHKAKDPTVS

[4] = target: T2, Polyadenylate-binding protein 1 (Homo sapiens, UniProt P11940); test: MLLE binding blockers, Cy5 peptide tracer – biochemical, fluorescence polarization, Cy5-PAM2 peptide, secondary, miRNA deadenylation inhibitor project, dose response (AID 602260); assay type: functional; conditions: read-out: IC50_Mean
T2 sequence (P11940 whole entry, the tested form may be a part): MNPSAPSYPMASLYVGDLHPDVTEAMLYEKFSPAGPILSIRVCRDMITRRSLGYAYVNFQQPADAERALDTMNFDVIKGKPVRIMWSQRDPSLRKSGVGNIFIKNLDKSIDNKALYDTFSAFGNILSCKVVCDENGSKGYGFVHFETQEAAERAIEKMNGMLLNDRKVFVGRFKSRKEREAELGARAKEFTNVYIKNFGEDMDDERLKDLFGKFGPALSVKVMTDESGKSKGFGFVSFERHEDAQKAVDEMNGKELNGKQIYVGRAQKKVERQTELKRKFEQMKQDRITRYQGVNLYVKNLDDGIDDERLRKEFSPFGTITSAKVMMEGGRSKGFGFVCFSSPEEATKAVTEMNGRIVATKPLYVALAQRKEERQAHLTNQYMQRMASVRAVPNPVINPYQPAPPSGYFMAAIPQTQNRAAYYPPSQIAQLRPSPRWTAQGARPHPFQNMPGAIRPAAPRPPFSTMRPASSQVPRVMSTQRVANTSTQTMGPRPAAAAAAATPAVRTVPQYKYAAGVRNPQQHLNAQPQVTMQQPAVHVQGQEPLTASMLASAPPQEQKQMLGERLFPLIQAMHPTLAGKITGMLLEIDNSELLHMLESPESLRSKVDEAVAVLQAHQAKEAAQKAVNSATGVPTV

[5] = target: T2, Polyadenylate-binding protein 1; test: MLLE domain peptide-binding blockers, IC50 – biochemical, fluorescence polarization, FITC-PAM2 peptide, dose response (AID 602259); assay type: functional; conditions: read-out: IC50_Mean
[6] = viability of PTEN-deleted HCT116 cells – cell-based, HCT116 PTEN knockout, dose response (AID 1047); assay type: functional;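 also: HCT116 colon tumor cells with PTEN knocked out; cells exposed to compound for 60 hours before readout; potency for loss of cell viability measured by luminescence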
[7] = viability of HCT116 lacking mutant beta-catenin – cell-based, human colon tumor, dose response (AID 1045); assay type: functional;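 also: HCT116 colon tumor cells with beta catenin knocked out; cells exposed to compound for 60 hours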
cells [8] = assay type: functional, cell-based
cells [9] = assay type: functional, cell-based; remark: listed apart in the source
[10] = target: T3, Calpain-2 catalytic subunit (Sus scrofa, UniProt P43367); test: m-calpain protease blockers, concentration series – biochemical, fluorogenic peptide substrate, dose response (AID 1420); assay type: functional
T3 sequence (P43367 whole entry): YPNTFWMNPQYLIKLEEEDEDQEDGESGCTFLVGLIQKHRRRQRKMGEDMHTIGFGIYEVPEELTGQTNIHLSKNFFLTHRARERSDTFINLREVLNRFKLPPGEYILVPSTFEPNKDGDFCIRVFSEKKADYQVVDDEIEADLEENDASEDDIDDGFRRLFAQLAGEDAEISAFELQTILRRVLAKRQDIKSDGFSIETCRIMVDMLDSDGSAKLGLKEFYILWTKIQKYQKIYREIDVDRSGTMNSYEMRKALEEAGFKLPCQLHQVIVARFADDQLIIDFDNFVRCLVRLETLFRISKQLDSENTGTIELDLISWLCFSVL

[11] = target: T4, Carboxy-terminal domain RNA polymerase II polypeptide A small phosphatase 1 (Homo sapiens, UniProt Q9GZU7); test: CTDSP1 inhibitors, concentration-response, biochemical, absorbance readout, ultra-high-throughput screen actives (AID 540297); assay type: functional
T4 sequence (Q9GZU7 whole entry): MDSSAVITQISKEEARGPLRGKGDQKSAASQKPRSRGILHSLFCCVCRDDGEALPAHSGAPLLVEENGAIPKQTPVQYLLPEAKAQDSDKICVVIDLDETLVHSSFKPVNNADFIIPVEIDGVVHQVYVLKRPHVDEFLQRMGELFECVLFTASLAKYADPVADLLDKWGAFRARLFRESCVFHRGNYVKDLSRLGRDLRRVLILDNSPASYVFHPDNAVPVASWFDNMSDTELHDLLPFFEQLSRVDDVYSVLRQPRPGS

[12] = luciferase reporter signal suppression in cells – H4 neuroglioma cells, luminescence, dose response (AID 1990); assay type: functional, cell-based
[13] = Luminescence Cell-Based Dose Response HTS to Identify Inhibitors of 5'UTR Stem-Loop Driven Prion Protein mRNA Translation in H4 Neuroglioblastoma Cells. [Related pubchem assays: 1827 (Project Summary), 1813 (Primary HTS)]; assay type: functional
[14] = alpha-synuclein stem-loop luciferase translation blockers – H4 neuroglioma cells, luminescence, confirmation (AID 1988); assay type: functional, cell-based

Chain of Voltage-dependent T-type calcium channel subunit alpha-1H (O95180 whole entry): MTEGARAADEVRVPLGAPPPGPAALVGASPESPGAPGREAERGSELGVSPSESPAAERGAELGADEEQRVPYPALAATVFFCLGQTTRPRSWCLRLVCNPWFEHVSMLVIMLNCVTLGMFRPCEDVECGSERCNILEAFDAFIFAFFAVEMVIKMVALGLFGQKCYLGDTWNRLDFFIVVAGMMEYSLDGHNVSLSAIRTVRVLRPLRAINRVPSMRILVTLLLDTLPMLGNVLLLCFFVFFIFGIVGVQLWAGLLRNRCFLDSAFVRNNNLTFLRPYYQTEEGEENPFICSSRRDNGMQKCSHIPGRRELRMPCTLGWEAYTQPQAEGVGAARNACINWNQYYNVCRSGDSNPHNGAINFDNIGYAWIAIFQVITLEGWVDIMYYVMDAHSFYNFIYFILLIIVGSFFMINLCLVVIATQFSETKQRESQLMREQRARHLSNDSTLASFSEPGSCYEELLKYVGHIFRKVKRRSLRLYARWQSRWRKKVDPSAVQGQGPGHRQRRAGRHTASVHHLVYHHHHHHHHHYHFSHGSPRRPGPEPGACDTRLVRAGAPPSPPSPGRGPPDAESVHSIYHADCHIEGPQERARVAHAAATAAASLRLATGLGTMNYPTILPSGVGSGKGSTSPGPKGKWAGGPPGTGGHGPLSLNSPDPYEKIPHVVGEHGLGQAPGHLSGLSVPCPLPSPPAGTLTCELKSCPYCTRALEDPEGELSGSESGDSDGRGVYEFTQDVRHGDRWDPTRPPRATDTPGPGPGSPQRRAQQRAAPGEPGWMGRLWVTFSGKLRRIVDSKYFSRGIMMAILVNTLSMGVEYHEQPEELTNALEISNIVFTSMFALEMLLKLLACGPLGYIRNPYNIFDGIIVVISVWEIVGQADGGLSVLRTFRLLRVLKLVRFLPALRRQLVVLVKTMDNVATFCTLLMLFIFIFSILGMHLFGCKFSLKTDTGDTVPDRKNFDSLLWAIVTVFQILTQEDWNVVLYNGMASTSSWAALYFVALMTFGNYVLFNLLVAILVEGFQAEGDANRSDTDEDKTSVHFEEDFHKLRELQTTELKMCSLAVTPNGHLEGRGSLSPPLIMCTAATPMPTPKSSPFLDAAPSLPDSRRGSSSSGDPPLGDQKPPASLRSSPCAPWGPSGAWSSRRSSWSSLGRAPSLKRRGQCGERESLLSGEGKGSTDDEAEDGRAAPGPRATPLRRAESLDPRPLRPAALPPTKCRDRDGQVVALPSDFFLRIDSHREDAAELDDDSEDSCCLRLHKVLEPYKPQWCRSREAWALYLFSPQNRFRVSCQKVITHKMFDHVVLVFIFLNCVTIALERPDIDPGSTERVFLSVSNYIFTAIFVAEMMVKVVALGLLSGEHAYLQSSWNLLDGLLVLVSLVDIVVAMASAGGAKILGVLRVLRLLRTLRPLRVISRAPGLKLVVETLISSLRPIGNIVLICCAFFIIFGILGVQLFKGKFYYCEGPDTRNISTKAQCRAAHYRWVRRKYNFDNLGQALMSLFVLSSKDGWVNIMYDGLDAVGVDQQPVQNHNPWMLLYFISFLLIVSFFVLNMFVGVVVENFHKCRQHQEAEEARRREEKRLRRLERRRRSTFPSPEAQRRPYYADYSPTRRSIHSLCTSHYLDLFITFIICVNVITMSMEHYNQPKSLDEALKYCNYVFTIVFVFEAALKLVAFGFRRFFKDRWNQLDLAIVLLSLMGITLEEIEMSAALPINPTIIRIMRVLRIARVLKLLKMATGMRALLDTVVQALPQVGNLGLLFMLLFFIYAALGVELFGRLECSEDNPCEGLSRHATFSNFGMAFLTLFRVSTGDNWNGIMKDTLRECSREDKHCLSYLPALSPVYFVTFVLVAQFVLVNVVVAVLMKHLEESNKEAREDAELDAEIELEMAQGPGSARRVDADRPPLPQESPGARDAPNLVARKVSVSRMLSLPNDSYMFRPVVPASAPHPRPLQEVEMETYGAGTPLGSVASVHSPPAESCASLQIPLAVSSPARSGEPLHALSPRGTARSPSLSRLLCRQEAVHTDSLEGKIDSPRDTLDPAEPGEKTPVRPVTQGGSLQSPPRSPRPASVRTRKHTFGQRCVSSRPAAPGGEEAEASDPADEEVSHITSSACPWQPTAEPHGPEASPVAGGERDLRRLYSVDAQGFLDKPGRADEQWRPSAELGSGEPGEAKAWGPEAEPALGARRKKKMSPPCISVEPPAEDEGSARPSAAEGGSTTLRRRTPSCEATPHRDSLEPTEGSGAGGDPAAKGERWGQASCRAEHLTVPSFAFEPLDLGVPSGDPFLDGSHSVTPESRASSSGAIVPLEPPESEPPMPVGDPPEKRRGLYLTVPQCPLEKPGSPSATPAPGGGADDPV

With `CCCC(=O)Nc1cccc(-c2nc3ccccc3c(=O)o2)c1` the IC50 (cells [1]) was 10.4 µM (active).
In the case of `CC(=O)Nc1ccc(S(=O)(=O)N2CCc3c(Cl)cccc3C2)cc1`, the EC50 [2] is reported as 4.82 µM (active).
In the case of `S=C(c1ccc(N2CCOCC2)cc1)N1CCOCC1`, the EC50 [3] is reported as > 195 µM (not active), the IC50 [4] is reported as > 66 µM (inactive) and the IC50 [5] is reported as > 66 µM (inactive).
With `C#CCN1C(=O)C(O)(CC(=O)c2cccc(OC)c2)c2ccccc21` (centres undefined) the EC50 [6] was 19.2 µM (active) and the EC50 [7] was 19.3 µM (active).
In the case of `CCOC(=O)C(NC(C)=O)(N1CCOCC1)C(F)(F)F` (centres undefined), the EC50 (cells [8]) is reported as > 350 µM (not active) and the EC50 (cells [9]) is reported as > 350 µM (not active).
With `CN(CCS(=O)(=O)c1ccc(Cl)cc1)Cc1cccnc1` the EC50 (cells [8]) was > 350 µM (not active) and the EC50 (cells [9]) was > 350 µM (not active).
For `CCOC(=O)c1cc(COc2cc(Cl)cc(Cl)c2)on1`, the IC50 (cells [1]) was 1.97 µM (active).
For `O=C(CSC1=NC2(CCCCC2)N=C1c1ccccc1)Nc1ccc2c(c1)OCCO2`, the IC50 [4] was > 66 µM (inactive) and the IC50 [5] was > 66 µM (inactive).
For `COc1ccc(-c2cc(C(=O)NC(Cc3cc4ccccc4[nH]3)C(=O)O)c(C)o2)cc1OC` (centres undefined), the IC50 [10] was 4.12 µM (not active).
In the case of `O=c1c2ccccc2nc2sc(Nc3ccc(F)cc3)nn12`, the IC50 [11] is reported as 8.04 µM (active).
For `O=C(CSc1nc2ccccc2[nH]1)NC1CCCC1`, the IC50 [11] was 6.85 µM (active).
For `O=C(CSc1ncccc1-c1nc2ccccc2[nH]1)NCc1ccco1`, the IC50 [11] was 10.3 µM (active).
For `O=C(/C=C/c1cccc(OCc2ccccc2)c1)c1cccnc1`, the EC50 [6] was 5.59 µM (active) and the EC50 [7] was 3.79 µM (active).
In the case of `O=C(Cc1ccc(Cl)cc1)OCC(=O)c1ccc[nH]1`, the IC50 (cells [1]) is reported as 18.8 µM (active).
For `O=C(Nc1ccccc1F)c1cc(-c2ccco2)nc2ccccc12`, the IC50 [11] was 8.25 µM (active).
For `CCCn1c(=O)c(C(=O)N/N=C/c2ccccc2F)c(O)c2ccccc21`, the IC50 (cells [1]) was 48.2 µM (active).
In the case of `O=C(CCCCCNC(=O)c1ccccc1)N/N=C/c1ccco1`, the IC50 [11] is reported as 29.2 µM (active).
In the case of `Cc1c(Cl)cccc1NC(=S)N/N=C/c1ccccc1Cl`, the EC50 (cells [8]) is reported as > 350 µM (not active) and the EC50 (cells [9]) is reported as > 350 µM (not active).
With `O=C(N/N=C1/CCCc2ccccc21)c1cc([N+](=O)[O-])cc([N+](=O)[O-])c1` the IC50 [10] was 21.8 µM (not active).
With `CCO/C(O)=C1\C(C)=NC2=C(C1c1ccc([N+](=O)[O-])cc1)S(=O)(=O)c1ccccc12` (centres undefined) the EC50 [12] was 17.2 µM (active), the EC50 [13] was 17.8 µM (active) and the EC50 [14] was 23.9 µM (active). For the same compound, the EC50 [6] was 29 µM (active) and the EC50 [7] was 31.4 µM (active).
For `CC(C)(C)CC(C)(C)c1ccc(OCC(=O)N/N=C/c2ccc(S(=O)(=O)O)o2)cc1`, the IC50 [10] was > 50 µM (not active).
With `COc1ccccc1/C=C/C=N/NC(=O)c1ccncc1` the IC50 (cells [1]) was 0.44 µM (active).
